Assay results as given in US20230023935A1, “USE OF MASITINIB FOR THE TREATMENT OF EOSINOPHILIC ASTHMA” (AB SCIENCE, priority 2019, published 2023).

System: subjects with severe persistent asthma treated with oral corticosteroids
Experiment: Phase 3 study AB07015: masitinib 6 mg/kg/day versus placebo, severe asthma exacerbations by baseline blood eosinophil cohort
Assay type: in vivo, human
Conditions: for Rate ratio (Estimate) for asthma exacerbations: Poisson regression
Experimental: A prospective, multicenter, randomized, double-blind, placebo-controlled, 2-parallel groups, phase 3 study was carried out to compare the efficacy and the safety of masitinib at 6 mg/kg/day versus placebo in the treatment of subjects with severe persistent asthma treated with oral corticosteroids. Said clinical trial (reference AB07015) is registered under the EudraCT number: 2010-020803-63 and under the ClinicalTrials.gov identifier: NCT01449162. Patients were randomized in two groups with a masitinib to placebo randomization ratio of 2:1, respectively: • Group 1: patients receiving masitinib at 6 mg/kg/day; • Group 2: patients receiving placebo. […] According to the statistical analysis plan of study AB07015 (version 1.0 dated 18 Oct. 2019), the overall assessable population was defined as: ‘all patients in full analysis set (FAS) with severe asthma already treated with oral corticosteroids at a minimal daily dose of greater than 5 mg prednisone or equivalent for at least 3 months prior to screening.’ Subgroup analyses were performed with cohort categorization of severe asthma patients according to eosinophil blood count at baseline. The primary efficacy endpoint was defined as the severe asthma exacerbation rate adjusted on the available person-time (time to end of treatment) on full exposure (main period+extension/weaning period). The rate of severe asthma exacerbations was analyzed by applying a Poisson regression (log-link function and Poisson distribution) model. Because eosinophilic inflammation is correlated with asthma severity, it was of interest to perform subgroup analyses according to blood eosinophil levels. Table 2 below presents the results regarding masitinib treatment effect with respect to placebo (rate ratio for asthma exacerbations requiring steroid therapy) in various blood eosinophil level-defined cohorts, and their complement cohorts (according to the primary efficacy analysis population). The rate of asthma exacerbations is analyzed using Poisson regression with treatment group (masitinib, placebo) as the primary variable (covariate) of interest.

[1] = masitinib 6 mg/kg/day oral, blood eosinophils equal to or higher than 150 cells/μL (M: 181)
[2] = masitinib 6 mg/kg/day oral, blood eosinophils equal to or lower than 300 cells/μL (M: 145)
[3] = masitinib 6 mg/kg/day oral, blood eosinophils higher than 300 cells/μL (M: 95)
[4] = masitinib 6 mg/kg/day oral, blood eosinophils lower than 150 cells/μL (M: 59)
[5] = masitinib 6 mg/kg/day oral, blood eosinophils ranging from 150 to 300 cells/μL (M: 86)
[6] = masitinib vs placebo, blood eosinophils equal to or higher than 150 cells/μL
[7] = masitinib vs placebo, blood eosinophils equal to or lower than 300 cells/μL
[8] = masitinib vs placebo, blood eosinophils higher than 300 cells/μL
[9] = masitinib vs placebo, blood eosinophils lower than 150 cells/μL
[10] = masitinib vs placebo, blood eosinophils ranging from 150 to 300 cells/μL
[11] = masitinib vs placebo, blood eosinophils equal to or higher than 300 cells/μL

With `Cc1ccc(NC(=O)c2ccc(CN3CCN(C)CC3)cc2)cc1Nc1nc(-c2cccnc2)cs1` [Masitinib, 4-(4-methylpiperazin-1-ylmethyl)-N-[4-methyl-3-(4-pyridin-3ylthiazol-2-ylamino)phenyl]benzamide] the “Yearly Exacerbation Rate” value (masitinib 6 mg/kg/day oral, blood eosinophils equal to or higher than 150 cells/μL) was 0.34 severe exacerbations per year, the “Number of Severe Exacerbations” value [1] was 67 and the “n: number of subjects who experienced severe exacerbation” value (from here on “n: number”) [1] was “(n = 39)”. The exacerbation rate (masitinib 6 mg/kg/day oral, blood eosinophils equal to or higher than 300 cells/μL (95 patients)) was 0.29 severe exacerbations per year, the “Yearly Exacerbation Rate” value (masitinib 6 mg/kg/day oral, blood eosinophils equal to or lower than 300 cells/μL) was 0.37 and the “Number of Severe Exacerbations” value [2] was 65. For the same molecule, the “n: number” value [2] was “(n = 35)”, the “Yearly Exacerbation Rate” value (masitinib 6 mg/kg/day oral, blood eosinophils higher than 300 cells/μL) was 0.29 and the “Number of Severe Exacerbations” value [3] was 29. The “n: number” value [3] was “(n = 19)”, the “Yearly Exacerbation Rate” value (masitinib 6 mg/kg/day oral, blood eosinophils lower than 150 cells/μL) was 0.36 severe exacerbations per year and the “Number of Severe Exacerbations” value [4] was 27. The “n: number” value [4] was “(n = 15)”, the “Yearly Exacerbation Rate” value (masitinib 6 mg/kg/day oral, blood eosinophils ranging from 150 to 300 cells/μL) was 0.38 severe exacerbations per year and the “Number of Severe Exacerbations” value [5] was 38. The “n: number” value [5] was “(n = 20)”, the “Rate ratio (Estimate) for asthma exacerbations” value (“Rate ratio (Estimate)” below) [6] was 0.66 and the “Rate ratio (Estimate)” value [7] was 0.81. The “Rate ratio (Estimate)” value [8] was 0.59, the “Rate ratio (Estimate)” value [9] was 0.97 and the “Rate ratio (Estimate)” value [10] was 0.72. The “Reduction in Severe Exacerbation” value [6] was 34%, the “Reduction in Severe Exacerbation” value (masitinib vs placebo, blood eosinophils equal to or higher than 150 cells/μL, listed as masitinib) was 33% and the “rate ratio for asthma exacerbations” value [11] was 0.59. The “reduction (improvement) in severe exacerbation” value [11] was 41%, the “Reduction in Severe Exacerbation” value [7] was 19% and the “Reduction in Severe Exacerbation” value [8] was 41%. For the same molecule, the “Reduction in Severe Exacerbation” value [9] was 3%, the “difference in exacerbation rate versus placebo” value [9] was “no discernable difference” and the “Reduction in Severe Exacerbation” value (masitinib vs placebo, blood eosinophils lower than 150 cells/μL, listed as masitinib) was 3%. The “Reduction in Severe Exacerbation” value [10] was 28% and the “Reduction in Severe Exacerbation” value (masitinib vs placebo, blood eosinophils ranging from 150 to 300 cells/μL, listed as masitinib) was 28%.
